Key:
K. oxytoca = assay: Culture growth (OD600) with sialic acid supplementation; type: cell-based, Klebsiella oxytoca; conditions: M9+CAS with sialic acid, peer review file, not added to the study
Method: as 2 times the recorded value). Importantly, all cultures in this experiment grew. […]
supplemented cultures. All cultures had reached stationary phase after 24 hours. While Neu5Gc cultures did grow slower than Neu5Ac cultures, the term suppression was incorrect. Therefore, we deleted text around Neu5Gc suppression and have changed line 123 to now read: […]
the SI. The following growth analysis was not added to the study.
2. Fig3 describes the role of PLP-enzyme for the production of pyrazines (features 5-9). From
Fig.3a it is clear that features 5 and 7 are different from 6, 8, and 9. Are there functional differences between these 2 groups of compounds in terms of siderophore production? […]
complementation of the pyr mutant with feature 7 could induce siderophore production (Fig4).
What about the features from the other group (6, 8, and 9)?
To address this comment, we performed RNA-seq analysis feeding compound 6 and looked at regulated genes/operons. Similar to compound 7, compound 6 supplementation increased the […]
a table listing specific genes, is now included in the SI. As such, lines 345-348 now read: […]
compound also differentially regulated the transcriptome (201 genes with Padj < 0.05; abs(log2FC) > 1) and enhanced the transcription of genes related to iron acquisition and iron metabolism (Supplemental Information).”
(also on this page, place not known: value ). PLP -enzyme -9). […]

[1] = system: leup operon (leupeptin BGC) promoter in K. oxytoca ATCC 8724; assay: GFP-based transcriptional reporter for the leup operon; type: cell-based, Klebsiella oxytoca; conditions: carbohydrate screen, M9 + casamino acid + 0.4% indicated sugar, 30 °C, 24 h
Description: We previously examined a panel of 84 clinical K. oxytoca isolates (including recently renamed Klebsiella michiganensis isolates) for the presence of either the leup operon or npsB, an NRPS of the tilimycin/tilivalline gene cluster. […] While the roles of tilivalline and tilimycin in hemorrhagic colitis are well studied[8],[9], the operon for leupeptin biosynthesis is “silent” in K. oxytoca under typical laboratory culture conditions (i.e., leupeptin production is undetectable). Therefore, our study commenced by exploring growth conditions required to trigger leupeptin biosynthesis in K. oxytoca. To achieve this, we generated a green fluorescent protein (GFP)-based reporter system to monitor leup transcription in K. oxytoca ATCC 8724 (recently renamed as Klebsiella michiganensis (ATCC 8724), Fig. 1a). We utilized λ-red recombineering techniques[38] to replace the first biosynthetic gene (leupA) of the leupeptin BGC with a GFP-spectinomycin resistance cassette. […] Consequently, conditions that elicit transcription of the leupeptin BGC can be monitored by GFP fluorescence intensity.
(§1) 5 mL of the leupeptin reporter strain was cultured aerobically in 10 g/L of LB (Becton Dickinson), yeast extract, GAM (HiMedia Laboratories), horse liver extract (HiMedia Laboratories), malt extract (VWR), meat extract (HiMedia Laboratories), YPD (Dot Scienticifc), brain heart infusion (Becton Dickinson), porcine mucin (Sigma-Aldrich, M1778), clostridial (Becton Dickinson), TSB (VWR), or casamino acid supplemented (5 g/L, VWR) M9 minimal salts (MP Biomedicals) at 30 °C for 24 h at 250 rpm. Cultures were lysed via sonication, centrifuged, and 150 µL of the supernatants were aliquoted into black well clear bottom 96 well plates. GFP fluorescence measurements were performed on a BioTek Synergy H1 plate reader with an excitation wavelength of 488 nm and an emission wavelength of 525 nm. For the carbohydrate screen, the leupeptin reporter strain was cultured in M9 minimal medium (MPbio) supplemented with casamino acid (5 g/L, VWR) and 0.4% indicated sugar aerobically at 30 °C for 24 h at 250 rpm.

[2] = system: wildtype K. oxytoca ATCC 8724; assay: Leupeptin detection in culture extracts by HPLC-QTOF-MS; type: cell-based, Klebsiella oxytoca; conditions: added to cultivation medium
Method: as §1
For MS-based determination of leupeptin activation, wildtype K. oxytoca ATCC 8724 was cultured in 5 mL of M9 minimal medium supplemented with 5 g/L casamino acids and 0.4% Neu5Ac. […] To measure the area under the curves for specific molecular features, the exact monoprotonated [M + H]^+ mass was calculated and extracted ion chromatographs (EICs) with a 10-ppm error were constructed. […]

S. enterica Typhimurium = system: S. enterica Typhimurium; parameters: method as in PMID 36929450; conditions: 100 µM (supra-physiological); cited from earlier work

Row | SMILES | culture growth (K. oxytoca) | GFP fluorescence, GFP Strain + Media ([1]; leup GFP reporter strain) | GFP fluorescence, WT + Media ([1]; wildtype K. oxytoca without reporter (background)) | induction of leupeptin (1) production [2] | effect on iron acquisition pathways (S. enterica Typhimurium)
1 | CC(=O)N[C@H]1[C@H]([C@H](O)[C@H](O)CO)OC(O)(C(=O)O)C[C@@H]1O (some centres unmarked) [Neu5Ac, N-acetylneuraminic acid] | grew fastest | 85763 RFU | 8846 RFU | robust detection of leupeptin | –
2 | Cc1c[nH]c(=O)c(C)n1 [DPO, dimethylpyrazine-2-ol] | – | – | – | – | downregulated iron acquisition pathways
